From ChEMBL document CHEMBL5113527, “First-in-Class Hydrazide-Based HDAC6 Selective Inhibitor with Potent Oral Anti-Inflammatory Activity by Attenuating NLRP3 Inflammasome Activation” (J Med Chem, 2022)
pIC50: −log10 of the molar value. Calls of active or inactive are those of the source. The rule behind the calls is not given here.

Key:
Histone deacetylase 2 [1] = target: T1, Histone deacetylase 2 (Homo sapiens, UniProt Q92769); assay: Inhibition of recombinant HDAC2 (unknown origin) using Boc-Lys(acetyl)-AMC as substrate preincubated for 1 hr followed by substrate addition and measured after 2 hrs by fluorescence based microplate reader analysis
Histone deacetylase 3 [2] = target: T2, Histone deacetylase 3 (Homo sapiens, UniProt O15379); assay: Inhibition of recombinant HDAC3 (unknown origin) using Boc-Lys(acetyl)-AMC as substrate preincubated for 1 hr followed by substrate addition and measured after 2 hrs by fluorescence based microplate reader analysis
Homo sapiens = organism: Homo sapiens; assay: Selectivity index, ratio of IC50 for recombinant HDAC1(unknown origin) to IC50 for full length recombinant human HDAC6
Histone deacetylase 1 [3] = target: T3, Histone deacetylase 1 (Homo sapiens, UniProt Q13547); assay: Inhibition of recombinant HDAC1 (unknown origin) using Boc-Lys(acetyl)-AMC as substrate preincubated for 1 hr followed by substrate addition and measured after 2 hrs by fluorescence based microplate reader analysis
[4] = target: T4, Protein deacetylase HDAC6 (Homo sapiens, UniProt Q9UBN7); assay: Inhibition of recombinant HDAC6 (unknown origin) using Boc-Lys(acetyl)-AMC as substrate preincubated for 1 hr followed by substrate addition and measured after 2 hrs by fluorescence based microplate reader analysis
T4 sequence (Q9UBN7 whole entry): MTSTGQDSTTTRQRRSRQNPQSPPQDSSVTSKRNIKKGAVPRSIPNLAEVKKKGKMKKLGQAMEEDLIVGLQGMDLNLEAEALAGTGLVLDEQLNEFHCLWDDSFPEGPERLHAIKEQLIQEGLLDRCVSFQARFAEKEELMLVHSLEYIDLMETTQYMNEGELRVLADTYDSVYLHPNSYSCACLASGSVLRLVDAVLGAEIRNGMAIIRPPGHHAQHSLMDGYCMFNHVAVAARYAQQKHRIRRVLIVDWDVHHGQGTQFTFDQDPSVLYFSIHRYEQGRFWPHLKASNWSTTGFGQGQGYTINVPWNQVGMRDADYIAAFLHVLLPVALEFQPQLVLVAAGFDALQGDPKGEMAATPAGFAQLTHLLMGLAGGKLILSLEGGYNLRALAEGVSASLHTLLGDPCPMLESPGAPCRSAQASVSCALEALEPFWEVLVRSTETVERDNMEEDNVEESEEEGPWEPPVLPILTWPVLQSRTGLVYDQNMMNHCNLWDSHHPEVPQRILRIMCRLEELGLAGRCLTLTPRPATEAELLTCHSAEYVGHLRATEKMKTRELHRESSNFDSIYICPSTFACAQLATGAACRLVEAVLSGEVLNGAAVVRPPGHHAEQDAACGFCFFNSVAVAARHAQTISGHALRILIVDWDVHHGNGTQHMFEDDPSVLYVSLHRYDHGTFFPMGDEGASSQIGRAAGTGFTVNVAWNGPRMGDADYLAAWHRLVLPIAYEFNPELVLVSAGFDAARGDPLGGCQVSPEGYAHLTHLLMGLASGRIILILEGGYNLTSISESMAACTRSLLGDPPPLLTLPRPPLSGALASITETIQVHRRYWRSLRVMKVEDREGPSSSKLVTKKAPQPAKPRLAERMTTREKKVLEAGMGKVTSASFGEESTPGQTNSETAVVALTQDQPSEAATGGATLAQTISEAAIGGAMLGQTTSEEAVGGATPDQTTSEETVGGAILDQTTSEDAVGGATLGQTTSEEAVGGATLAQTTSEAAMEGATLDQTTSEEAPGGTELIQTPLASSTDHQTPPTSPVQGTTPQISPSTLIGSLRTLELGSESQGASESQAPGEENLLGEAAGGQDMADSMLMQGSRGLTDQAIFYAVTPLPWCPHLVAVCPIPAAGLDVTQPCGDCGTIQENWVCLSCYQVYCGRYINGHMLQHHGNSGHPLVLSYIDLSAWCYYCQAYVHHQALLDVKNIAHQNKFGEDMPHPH

Histone deacetylase 3 [5] = target: T2, Histone deacetylase 3; assay: Inhibition of HDAC3 (unknown origin)
Histone deacetylase 2 [6] = target: T1, Histone deacetylase 2; assay: Inhibition of HDAC2 (unknown origin)
[7] = AUC(0 to infinity) in CD-1 mouse at 30 mg/kg, po measured after 0.083 to 24 hrs by LC-MS/MS analysis; assay type: ADME, organism-based; set-up: dose 30 mg/kg, time upper 24 hrs, time lower 0.083 hrs, route po; conditions: in vivo
[8] = AUC(0 to infinity) in CD-1 mouse at 3 mg/kg, iv measured after 0.083 to 24 hrs by LC-MS/MS analysis; assay type: ADME, organism-based; set-up: dose 3 mg/kg, time upper 24 hrs, time lower 0.083 hrs, route iv; conditions: in vivo
[9] = Cmax in CD-1 mouse at 3 mg/kg, iv measured after 0.083 to 24 hrs by LC-MS/MS analysis; assay type: ADME, organism-based; set-up: time upper 24 hrs, time lower 0.083 hrs, dose 3 mg/kg, route iv; conditions: in vivo
[10] = Cmax in CD-1 mouse at 30 mg/kg, po measured after 0.083 to 24 hrs by LC-MS/MS analysis; assay type: ADME, organism-based; set-up: time upper 24 hrs, time lower 0.083 hrs, dose 30 mg/kg, route po; conditions: in vivo
J774.A1 [11] = assay: Inhibition of HDAC6/dynein interaction in mouse J774.A1 cells measured after 8 hrs by co-immunoprecipitation based Western blotting analysis; assay type: cell-based
[12] = Inhibition of HDAC11(unknown origin) preincubated for 1 hr followed by substrate addition and measured after 2 hrs by fluorescence based microplate reader analysis; set-up: species or system Homo sapiens
[13] = Cmax in CD-1 mouse at 5 mg/kg, iv measured after 0.083 to 24 hrs by LC-MS/MS analysis; assay type: ADME, organism-based; set-up: dose 5 mg/kg, time 0.083-24 hrs, route iv; conditions: in vivo
[14] = Half life in CD-1 mouse at 5 mg/kg, iv measured after 0.083 to 24 hrs by LC-MS/MS analysis; assay type: ADME, organism-based; conditions: in vivo, time 0.083-24 hrs
[15] = AUC(0 to infinity) in CD-1 mouse at 5 mg/kg, iv measured after 0.083 to 24 hrs by LC-MS/MS analysis; assay type: ADME, organism-based; set-up: dose 5 mg/kg, time upper 24 hrs, time lower 0.083 hrs, route iv; conditions: in vivo
J774.A1 [16] = assay: Inhibition of NLRP3 inflammasome activation in mouse J774.A1 cells assessed as cleavage of pro-caspase 1 to p20 measured at 5 to 20 microM after […] by Western blot analysis; assay type: functional, cell-based; conditions: dose 5-20 µM
J774.A1 [17] = assay: Inhibition of NLRP3 inflammasome activation in mouse J774.A1 cells assessed as cleavage of pro-caspase 1 to p20 measured at 20 microM after […] by Western blot analysis; assay type: functional, cell-based; conditions: DDE = dose-dependent effect
Histone deacetylase 1 [18] = target: T3, Histone deacetylase 1; assay: Inhibition of HDAC1 (unknown origin)

T2 sequence (O15379 whole entry): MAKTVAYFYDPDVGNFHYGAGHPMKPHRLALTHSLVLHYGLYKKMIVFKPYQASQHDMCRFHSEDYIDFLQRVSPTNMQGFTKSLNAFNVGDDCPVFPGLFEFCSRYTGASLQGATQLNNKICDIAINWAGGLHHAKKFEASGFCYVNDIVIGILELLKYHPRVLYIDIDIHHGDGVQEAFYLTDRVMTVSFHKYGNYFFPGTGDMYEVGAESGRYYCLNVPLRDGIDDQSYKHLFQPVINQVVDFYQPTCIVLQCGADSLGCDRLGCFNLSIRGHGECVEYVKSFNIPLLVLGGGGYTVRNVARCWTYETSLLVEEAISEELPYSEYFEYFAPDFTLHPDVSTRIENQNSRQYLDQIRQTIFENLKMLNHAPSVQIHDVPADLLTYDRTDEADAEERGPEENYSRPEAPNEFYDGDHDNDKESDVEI
T3 sequence (Q13547 whole entry): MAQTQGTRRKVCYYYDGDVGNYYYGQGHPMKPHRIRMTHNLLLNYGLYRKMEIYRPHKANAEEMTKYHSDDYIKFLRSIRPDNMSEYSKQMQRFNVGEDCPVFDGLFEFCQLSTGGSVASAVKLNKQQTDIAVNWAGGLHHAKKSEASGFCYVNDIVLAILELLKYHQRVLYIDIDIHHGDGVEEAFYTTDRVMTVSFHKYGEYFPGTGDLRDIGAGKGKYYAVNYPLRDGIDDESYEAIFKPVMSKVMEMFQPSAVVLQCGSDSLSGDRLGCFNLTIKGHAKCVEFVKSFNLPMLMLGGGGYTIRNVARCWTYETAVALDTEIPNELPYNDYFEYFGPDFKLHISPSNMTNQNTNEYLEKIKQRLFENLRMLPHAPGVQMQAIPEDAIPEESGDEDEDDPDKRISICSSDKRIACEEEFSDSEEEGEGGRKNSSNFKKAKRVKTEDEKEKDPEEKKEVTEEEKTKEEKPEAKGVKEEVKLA
T1 sequence (Q92769 whole entry): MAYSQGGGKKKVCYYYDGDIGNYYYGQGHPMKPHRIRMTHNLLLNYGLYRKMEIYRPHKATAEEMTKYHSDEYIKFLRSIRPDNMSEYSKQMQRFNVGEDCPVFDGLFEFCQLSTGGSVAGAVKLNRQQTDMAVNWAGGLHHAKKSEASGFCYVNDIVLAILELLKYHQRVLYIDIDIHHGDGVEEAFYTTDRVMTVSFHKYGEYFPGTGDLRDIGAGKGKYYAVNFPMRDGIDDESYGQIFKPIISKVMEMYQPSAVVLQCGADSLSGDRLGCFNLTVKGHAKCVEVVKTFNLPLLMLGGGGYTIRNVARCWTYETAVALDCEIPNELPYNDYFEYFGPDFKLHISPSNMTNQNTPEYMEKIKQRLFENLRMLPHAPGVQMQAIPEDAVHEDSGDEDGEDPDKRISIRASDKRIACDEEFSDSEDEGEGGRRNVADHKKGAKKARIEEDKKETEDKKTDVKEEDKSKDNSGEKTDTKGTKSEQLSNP

| SMILES | pIC50 (Histone deacetylase 2 [1]) | pIC50 (Histone deacetylase 3 [2]) | Ratio IC50 (Homo sapiens) | pIC50 (Histone deacetylase 1 [3]) | pIC50 [4] | also measured |
| --- | --- | --- | --- | --- | --- | --- |
| CCNNC(=O)c1ccc(Cn2c3ccccc3c3cnccc32)cc1 | 5.49 | 5.34 | > 45 | < 5.30 | 6.96 |  |
| CCNNC(=O)c1ccc(CN2c3ccccc3Sc3ccccc32)cc1 | < 5.30 | 5.40 | > 28 | < 5.30 | 6.76 |  |
| CCNNC(=O)c1coc(-c2ccc(Br)cc2)c1 | < 5.30 | < 5.30 |  | < 5.30 | < 5.30 |  |
| CCNNC(=O)c1ccc(Cn2c3ccccc3c3ccccc32)cc1 | < 5.30 | 5.63 | > 14 | < 5.30 | 6.44 |  |
| CCNNC(=O)c1ccc(CN2c3ccccc3C=Cc3ccc(C(F)(F)F)cc32)cc1 | < 5.30 | 5.73 | > 29 | < 5.30 | 6.76 |  |
| CCNNC(=O)c1ccc(Cn2c3c(c4ccccc42)CCCC3)cc1 | < 5.30 | < 5.30 | > 11 | < 5.30 | 6.34 |  |
| CCNNC(=O)c1ccc(CN2c3ccccc3CCc3ccccc32)cc1 | < 5.30 | 5.40 | > 20 | < 5.30 | 6.60 |  |
| O=C(NO)c1ccc(CN2CCCc3ccccc32)cc1 |  |  |  |  |  | pIC50 (Histone deacetylase 3 [5]): 4.53; pIC50 (Histone deacetylase 2 [6]): 4.48 |
| CCNNC(=O)c1ccc(Cn2c3ccccc3c3ccncc32)cc1 | 5.36 | < 5.30 | > 68 | < 5.30 | 7.14 |  |
| CCNNC(=O)c1ccc(CN2c3ccccc3Sc3cccnc32)cc1 | < 5.30 | 5.75 | 65 | 5.40 | 7.21 |  |
| CN1CCc2c(c3ccccc3n2Cc2ccc(C(=O)NO)cc2)C1 [TUBASTATIN A] |  |  |  |  |  | AUC [7]: 134 ng·h/mL; AUC [8]: 227 ng·h/mL; Cmax [9]: 1240 ng/mL; Cmax [10]: 135 ng/mL; inhibition (J774.A1 [11]): Active; pIC50 [12]: < 5.30 |
| CNNC(=O)c1ccc(CNC(=O)c2ccccc2)cc1 |  |  | 5.2 | 5.34 | 6.06 |  |
| CCNNC(=O)c1csc(-c2cccnc2)n1 | 6.50 | < 5.30 |  | < 5.30 | < 5.30 |  |
| O=C(CCCCCCNC(=O)c1cnc(N(c2ccccc2)c2ccccc2)nc1)NO [RICOLINOSTAT] |  |  |  |  |  | Cmax [13]: 372 ng/mL; half-life [14]: 2.62 h; AUC(0-inf) [15]: 342 ng·h/mL; pIC50 [12]: < 5.30 |
| CCNNC(=O)c1ccc(CN2c3ccccc3Oc3ccccc32)cc1 | < 5.30 | 5.50 | > 6 | < 5.30 | 6.07 |  |
| CNS(=O)(=O)c1ccc(CCNC(=O)c2cc(Cl)ccc2OC)cc1 |  |  |  |  |  | Activity (J774.A1 [16]): Active; inhibition (J774.A1 [17]): Dde |
| O=C(NO)c1ccc(CC(=O)N(CCO)c2ccccc2)cc1 |  |  |  |  |  | pIC50 (Histone deacetylase 1 [18]): 6.07; pIC50 (Histone deacetylase 3 [5]): 5.68; pIC50 (Histone deacetylase 2 [6]): 5.66 |
| CCCCN(Cc1ccc(C(=O)NO)cc1)C(=O)Nc1ccccc1 [NEXTURASTAT A] |  |  |  |  |  | pIC50 (Histone deacetylase 3 [5]): 5.22 |
| O=C(CS)NCCCCNc1c(Cl)cc(Cl)c2cccnc12 |  |  |  | 5.18 |  | pIC50 (Histone deacetylase 1 [18]): 5.18 |

More lines, in order of rising pIC50 (Histone deacetylase 1 [3]), values ahead:

| pIC50 (Histone deacetylase 2 [1]) | pIC50 (Histone deacetylase 3 [2]) | Ratio IC50 (Homo sapiens) | pIC50 (Histone deacetylase 1 [3]) | pIC50 [4] | SMILES | also measured |
| --- | --- | --- | --- | --- | --- | --- |
| < 5.30 | < 5.30 | 37 | 5.41 | 6.98 | CCNNC(=O)c1ccc(CN2c3ccccc3CC(=O)c3ccccc32)cc1 |  |
| < 5.30 | 5.84 | 13 | 5.50 | 6.63 | CCNNC(=O)c1ccc(CN2c3ccccc3Cc3ccccc32)cc1 |  |
| 5.63 | 5.80 | 77 | 5.54 | 7.43 | CCNNC(=O)c1ccc(Cn2c3ccccc3c3cccnc32)cc1 |  |
| 5.39 | 6.25 | 68 | 5.60 | 7.43 | CCNNC(=O)c1ccc(CN2c3ccccc3C=Cc3ccc(F)cc32)cc1 |  |
| < 5.30 | 5.79 | 54 | 5.64 | 7.38 | CCNNC(=O)c1ccc(CN2c3ccccc3C=Cc3ccccc32)cc1 |  |
| 5.36 | 6.33 | 30 | 5.64 | 7.12 | CCNNC(=O)c1ccc(CN2c3ccccc3C=Cc3ccc(C)cc32)cc1 |  |
| < 5.30 | 5.94 | 48 | 5.65 | 7.33 | CCNNC(=O)c1ccc(CN2c3ccccc3C=Cc3nc(C)nc(C)c32)cc1 |  |
| 5.92 | 7.11 | 11 | 5.77 | 6.84 | CCNNC(=O)c1ccc(Cn2c(=O)n(CCc3ccccc3)c(=O)c3ccccc32)cc1 |  |
| 6.63 | 6.35 | 0.9 | 5.84 | 5.82 | CCNNC(=O)c1ccc(NC(=O)Nc2cccc3cccnc23)cc1 |  |
| 6.73 | 6.35 | 6.7 | 5.90 | 6.72 | CCCCN(Cc1ccc(C(=O)NNCC)cc1)C(=O)c1ccccc1 |  |
| 7.09 | 6.83 |  | 6.18 | 7.39 | CCNNC(=O)c1ccc(CNc2cccc3cccnc23)cc1 |  |
| 6.04 | 6.66 | 1.2 | 6.27 | 6.35 | CCNNC(=O)c1ccc(Cn2ccc3cc(C(=O)c4ccc(OC)cc4)ccc32)cc1 |  |
|  |  | 5.1 | 6.40 | 7.11 | CCNNC(=O)c1ccc(CNC(=O)c2ccccc2)cc1 |  |
| 7.11 | 6.72 | 2.5 | 6.47 | 6.88 | CCCCN(Cc1ccc(C(=O)NNCC)cc1)C(=O)Nc1ccccc1 |  |
| 7.39 | 7.59 | 5 | 7.10 | 7.80 | CCNNC(=O)c1ccc(Cn2nnnc2-c2cccs2)cc1 |  |
|  |  | 0.002 | 7.89 | < 5.30 | CCCNNC(=O)c1ccc(CNC(=O)c2ccccc2)cc1 |  |
| 8.22 | 9.05 |  | 8.52 | 7.47 | CCNNC(=O)c1ccc(CNC(=O)Nc2cccc3cccnc23)cc1 |  |
